Assay results as given in patent US20160216351A1, “METHOD FOR DETECTING OXIDATION/REDUCTION REACTION IN VIVO” (KYUSHU UNIVERSITY, NATIONAL UNIVERSITY CORPORATION, priority 2013, published 2016).

Columns and labels:
C57BL6 mice = test: Metabolic imaging in mice using sequential ReMI; format: in vivo
Source text: Female C57BL6 mice (5 weeks old) were purchased from Japan SLC, Inc. (Hamamatsu, Japan) and acclimated for one week before the experiment. Mice were 6 to 8 weeks old at the time of the experiment (body weight: 20-30 g), and five mice were kept in each cage in a room that was adjusted to a 24-hour cycle rhythm, wherein the temperature and moisture of the room were also adjusted. Food and water were given ad libitum. All the procedures and animal care were approved by the Animal Experiment Ethics Committee of Kyushu University and carried out in accordance with guidelines for animal experiments established by Kyushu University.
Mice were anesthetized with 2% isoflurane in the FADH experiment or with urethane (2 g/kg) in the CoQ0H experiment and immobilized with a skin adhesive tape, wherein the stomach was placed to the lower side. During the experiment, the temperature of mice was kept at 37+/−1° C. with a warm current of air. Subsequently, mice were placed in a resonator and ReMI measurement was started. ReMI images of the lower abdominal region were examined after administering an 8 mM CoQ0 alkaline solution (800 μL) to the rectum or administering an FAD/NADH solution intramuscularly.
ReMI images were obtained by using a DNP-MRI system manufactured at Kyushu University in an experiment using FADH and a Philips prototype system in an experiment using CoQ0. The ReMI experiment was conducted using the abovementioned parameters. Radical metabolic images (redox maps) were obtained by calculating changes in ReMI intensity in each pixel among the first four ReMI images (from a semi-logarithmic plot line of each pixel on sequential images).

[1] = tested on: mitochondria collected from a rat; test: ReMI metabolic imaging in the presence of mitochondria (phantom tubes); format: in vitro ADME; conditions: mitochondria fractions of various concentrations
Procedure: The ReMI experiment was conducted by using a DNP-MRI system manufactured at Kyushu University. The DNP-MRI system was constituted by using an external magnet for an EPR device (JES-ES20, JEOL Ltd.) and two axis field gradient coils for CW-EPR imaging. A resonator was constituted of a surface coil for ESR irradiation, an NMR cross coil within a saddle, and a solenoid for transmission and signal reception. An ESR irradiation coil was disposed between two NMR coils. […] A surface coil (diameter: 20 mm) was used for ESR irradiation, and an NMR coil assembly was constituted of an NMR transmission saddle coil (90 mm i.d., 175 mm in length) and a solenoid reception coil (40 mm i.d., 60 mm in length) having a bandwidth of 1 kHz. The maximum transmission power was 100 W. The ReMI experiment was conducted by a spin echo method. The ReMI experiment was conducted under the following conditions: EPR irradiation power, 12 W; flip angle, 90 degrees; TEPR×repetition time (TR)×echo time (TE)=500×1000×40 ms; average number=1; slice thickness, 30 mm; and a 64-phase modulation step. For the image field (32×32 mm), 64×64 matrix was used.
To a phantom tube filled with mitochondria collected from a rat was added FADH or CoQ0H in an experiment. […] The metabolic rates (decreasing rates) of FADH and CoQ0H were calculated from changes in the first four image intensities after the reaction with mitochondria.

FADH
distribution in fusion images of MRI and ReMI (C57BL6 mice; FADH intramuscular, CoQ0H rectal): site-specifically distributed in the legs
pharmacokinetic map (decreasing rate) (C57BL6 mice; calculated from first four ReMI images): constant
metabolism in the muscle by ReMI scanning (C57BL6 mice; intramuscular administration): metabolized slowly
ReMI image intensity during the test period (C57BL6 mice; intramuscular administration in both legs, imaging every two minutes, 14 minutes): stable
redox map (intensity declining speed) ([1]; calculated from first four image intensities): no change
change in ReMI image intensity over time after reaction with mitochondria ([1]; images every two minutes, EPR irradiation 572.5 MHz): no reaction with mitochondria
